Data on 24 compounds can be found in patent US8410159B2, “Imidazole compounds having pharmaceutical activity towards the sigma receptor” (Laboratories del Dr. Esteve, S.A., priority 2006, dated 2013).

In one data set the target is T1, σ1-receptor (Cavia porcellus, UniProt Q60492).
T1 construct: guinea pig brains were homogenized; from tissue; host or cells: guinea pig brain membranes
Briefly: Sigma-1 receptor binding assay, [3H](+)-pentazocine, brain membranes. The conditions noted are these: guinea pig brain membranes; for inhibition at 0.1 µM: compound 10^−7 M; for inhibition at 0.1 µM / inhibition at 0.01 µM: [3H](+)-pentazocine 0.5 nM; for inhibition at 0.01 µM: compound 10^−8 M; for Ki: σ1, [3H](+)-pentazocine. On the procedure:
Brain membrane preparation and binding assays for the σ1-receptor were performed as described (DeHaven-Hudkins et al., 1992) with some modifications. In brief, guinea pig brains were homogenized in 10 vols. (w/v) of Tris-HCl 50 mM 0.32 M sucrose, pH 7.4, with a Kinematica Polytron PT 3000 at 15000 r.p.m. for 30 s. The homogenate was centrifuged at 1000 g for 10 min at 4° C. and the supernatants collected and centrifuged again at 48000 g for 15 min at 4° C. The pellet was resuspended in 10 volumes of Tris-HCl buffer (50 mM, pH 7.4), incubated at 37° C. for 30 min, and centrifuged at 48000 g for 20 min at 4° C. Following this, the pellet was resuspended in fresh Tris-HCl buffer (50 mM, pH 7.4) and stored on ice until use.
Each assay tube contained 10 μL of [^3H](+)-pentazocine (final concentration of 0.5 nM), 900 μL of the tissue suspension to a final assay volume of 1 mL and a final tissue concentration of approximately 30 mg tissue net weight/mL. Non-specific binding was defined by addition of a final concentration of 1 μM haloperidol. All tubes were incubated at 37° C. for 150 min before termination of the reaction by rapid filtration over Schleicher & Schuell GF 3362 glass fibre filters [previously soaked in a solution of 0.5% polyethylenimine for at least 1 h]. Filters were then washed with four times with 4 mL of cold Tris-HCl buffer (50 mM, pH 7.4). Following addition of scintillation cocktail, the samples were allowed to equilibrate overnight. The amount of bound radioactivity was determined by liquid scintillation spectrometry using a Wallac Winspectral 1414 liquid scintillation counter. Protein concentrations were determined by the method of Lowry et al. (1951).

Data set [1] deals with capsaicin-induced allodynia. Description: von Frey filaments in a model of capsaicin-induced allodynia. The format is in vivo. To be noted: percent analgesia compared to control, mice, mechanical stimulus (von Frey) after capsaicin. The protocol: In-Vivo-Experiments Using von Frey Filaments in a Model of […]-Induced Allodynia: This model is described in detail in the experimental part of WO 2006/010587 A1, examples 1 and 2, the description being included here by reference. Capsaicin is thereby injected into experimental animals to produce acute pain followed by allodynia. Briefly after habituation mice were first treated with the test-compound (or not in controls). Then capsaicin (1% DMSO) is injected into their paw resulting in developing pain in the effected paw. The effected paw is then treated with a mechanical stimulus and the latency time before the paw is withdrawn is measured.

T1 sequence (Q60492 whole entry): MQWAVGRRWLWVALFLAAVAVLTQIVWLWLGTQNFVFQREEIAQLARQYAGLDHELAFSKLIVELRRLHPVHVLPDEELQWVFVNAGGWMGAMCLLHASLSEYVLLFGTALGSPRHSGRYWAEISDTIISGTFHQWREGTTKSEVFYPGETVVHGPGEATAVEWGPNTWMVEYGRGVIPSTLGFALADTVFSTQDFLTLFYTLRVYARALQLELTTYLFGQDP

For `Cc1cc(SCCN2CCCC2)nn1-c1ccc(Cl)c(Cl)c1.O=C(O)C(=O)O`, the melting point (usually the temperature, or range, at which the solid turns liquid) fell in the range of 144 to 151 °C. Same read-out and setting: then `CN1CCN(CC(=O)Nc2ccn(-c3ccc(Cl)c(Cl)c3)n2)CC1.O=C(O)C(=O)O`, with 213 to 217 °C; and `CN1CCN(CCNc2ccn(-c3ccc(Cl)c(Cl)c3)n2)CC1.O=C(O)C(=O)O`, with 230 to 232 °C. `O=C(CN1CCCC1)Nc1ccn(C2CCCCC2)n1.O=C(O)C(=O)O`: the melting point was in the range of 127 to 130 °C. The same measure, in the same setting: to `Cc1cc(SCCN2CCCCC2)nn1-c1ccc(Cl)c(Cl)c1.O=C(O)C(=O)O` belongs 162 to 164 °C. Turning to `CN(CC(=O)Nc1ccn(-c2ccc(Cl)c(Cl)c2)n1)Cc1ccccc1.O=C(O)C(=O)O`, the melting point was in the range of 206 to 209 °C. As to `O=C(CN1CCCCC1)Nc1ccn(-c2ccc(Cl)c(Cl)c2)n1` [Example 5, N-[1-(3,4-dichlorophenyl)-1H-pyrazol-3-yl)-2-(piperidin-1-yl)acetamide], the melting point is 78 to 82 °C. Moreover, at σ1-receptor, the inhibition (as a rule, the drop in the measured response relative to a control, in per cent) at 0.1 µM was 68.2% and testing at 0.01 µM gave an inhibition of 46.1%. The compound `O=C(O)C(=O)O.c1ccc2cc(-n3ccc(NCCN4CCOCC4)n3)ccc2c1` showed a melting point of 148 to 153 °C. As for `Clc1ccc(-n2ccc(NCCN3CCCCC3)n2)cc1Cl.O=C(O)C(=O)O` [Example 6, 1-(3,4-Dichlorophenyl)-N-(2-(piperidin-1-yl)ethyl)-1H-pyrazol-3-amine oxalate], the melting point lay within 168 to 172 °C. At σ1-receptor, at 0.1 µM the inhibition was 88.3%, 0.01 µM produced 53.6% inhibition and the Ki (commonly the equilibrium dissociation constant of an inhibitor or competing ligand from its target) worked out at 7.1 nM. For the same compound, the “Analgesia (16 mg/kg), i.p. %” value in data set [1] is 42%. On to `CCN(CC)CCSc1cc(C)n(-c2ccc(Cl)c(Cl)c2)n1.O=C(O)C(=O)O` [Example 70, 2-(1-(3,4-dichlorophe-nyl)-5-methyl-1H-pyrazol-3-ylthio)-N,N-diethylethanamine oxalate], for which the melting point is 184 to 188 °C. Also, on σ1-receptor, the inhibition at 0.1 µM stood at 93.1% and the inhibition at 0.01 µM stood at 34.6%. Turning to `CCN(CC)CC(=O)Nc1ccn(-c2ccc(Cl)c(Cl)c2)n1` [Example 4, N-(1-(3,4-dichlorophenyl)-1H-pyrazol-3-yl)-2-(diethylamino)acetamide], the melting point was in the range of 69 to 74 °C. On σ1-receptor, at 0.1 µM the inhibition was 77.3%; 0.01 µM produced 51.7% inhibition; the affinity, expressed as Ki, was 6.4 nM. In addition, in data set [1], the “Analgesia (16 mg/kg), i.p. %” value is on record as 47%. Take `O=C(CN1CCCCC1)Nc1ccn(C2CCCCC2)n1.O=C(O)C(=O)O`: the melting point lay within 177 to 181 °C. Consider `CN(CC(=O)Nc1ccn(-c2ccc(Cl)c(Cl)c2)n1)C1CCCCC1` [Example 11, 2-(cyclohexyl (methyl)amino)-N-(1-(3,4-dichlorophenyl)-1H-pyrazol-3-yl)acetamide], for which the melting point lay in the range of 88 to 94 °C. For the same compound, on σ1-receptor, the inhibition at 0.1 µM stood at 91.8% and at 0.01 µM the inhibition was 68.8%. `O=C(CN1CCOCC1)Nc1ccn(-c2cccc(Cl)c2)n1.O=C(O)C(=O)O` came in with a melting point of 219 to 220 °C.

`Clc1cccc(-n2ccc(NCCN3CCOCC3)n2)c1.O=C(O)C(=O)O` gave a melting point of 144 to 146 °C. For the compound `CCN(CC)CCNc1ccn(-c2ccc(Cl)c(Cl)c2)n1` [Example 1, 1-(3,4-dichlorophenyl)-N-(2-(diethylamino)ethyl)-1H-pyrazol-3-amine], at σ1-receptor, the inhibition at 0.1 µM worked out at 66.6%; the inhibition at 0.01 µM came to 1.8%; the affinity, expressed as Ki, was 46.4 nM. As to `O=C(CN1CCOCC1)Nc1ccn(-c2ccc(Cl)c(Cl)c2)n1` [Example 2, N-(1-(3,4-dichlorophenyl)-1H-pyrazol-3-yl)-2-morpholinoacetamide], on σ1-receptor, the inhibition at 0.1 µM was found to be 37.8% and the inhibition at 0.01 µM turned out to be 25.9%.

Regarding `O=C(CN1CCOCC1)Nc1ccn(-c2ccc3ccccc3c2)n1.O=C(O)C(=O)O`, the melting point was 213 to 217 °C. Still for that read-out and setting: then `O=C(CN1CCCCCC1)Nc1ccn(-c2ccc(Cl)c(Cl)c2)n1` [Example 28, 2-(azepan-1-yl)-N-(1-(3,4-dichlorophenyl)-1H-pyrazol-3-yl)acetamide], with 99 to 102 °C. For `Clc1ccc(-n2ccc(NCCN3CCOCC3)n2)cc1Cl` [Example 3, 1-(3,4-dichlorophenyl)-N-(2-morpholinoethyl)-1H-pyrazol-3-amine], at σ1-receptor, the inhibition at 0.1 µM was determined as 78.9% and the inhibition at 0.01 µM worked out at 54.3%. At σ1-receptor, `Cc1cc(SCCN2CCOCC2)nn1-c1ccc(Cl)c(Cl)c1.O=C(O)C(=O)O` [Example 68, 4-(2-(1-(3,4-dichlorophenyl)-5-methyl-1H-pyrazol-3-ylthio)ethyl) morpholine oxalate] had an inhibition at 0.1 µM of 93.5%, an inhibition at 0.01 µM of 91.2% and a Ki of 23 ± 0.6 nM. In addition, the “Analgesia (16 mg/kg), i.p. %” value in data set [1] worked out at 21%. In turn, `Clc1ccc(-n2ccc(NCCN3CCCCCC3)n2)cc1Cl.O=C(O)C(=O)O` yielded a melting point of 157 to 159 °C. In turn, `Clc1ccc(-n2ccc(NCCN3CCN(C4CCCCC4)CC3)n2)cc1Cl` [Example 14, N-(2-(4-cyclohexylpiperazin-1-yl)ethyl)-1-(3,4-dichlorophenyl)-1H-pyrazol-3-amine] gave a melting point of 115 to 119 °C. On σ1-receptor, this compound had an inhibition at 0.1 µM of 100% and an inhibition at 0.01 µM of 72.1%. Turning to `CN(CCNc1ccn(-c2ccc(Cl)c(Cl)c2)n1)C1CCCCC1.O=C(O)C(=O)O`, the melting point fell in the range of 114 to 116 °C.
